What was measured:
Assay type in all cases: in vivo
kochia (Kochia scoparia) [1] = assay: Test A preemergence; conditions: Bassia scoparia, pre-emergence, 240 h, 1000 g ai/ha, 0 to 100 scale, read-out: Plant response rating, Kochia
Procedure, shortened: (§1)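 Compounds in non-phytotoxic solvent with surfactant applied as soil spray preemergence, or postemergence to plants 2-10 cm at one- to two-leaf stage, in loam/sand. After approximately 10 days in greenhouse, injury rated visually versus untreated controls, 0 (no effect) to 100 (complete control).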

[2] = tested on: ragweed (common ragweed, Ambrosia elatior); assay: Test A preemergence; conditions: Ambrosia artemisiifolia, pre-emergence, 240 h, 1000 g ai/ha, 0 to 100 scale, read-out: Plant response rating, Ragweed
Procedure, shortened: as §1

[3] = tested on: pigweed (Amaranthus retroflexus); assay: Test A preemergence; conditions: Amaranthus retroflexus, pre-emergence, 240 h, 1000 g ai/ha, 0 to 100 scale, read-out: Plant response rating, Pigweed
Procedure, shortened: as §1

[4] = tested on: Italian ryegrass (Lolium multiflorum); assay: Test A preemergence; conditions: Lolium multiflorum, pre-emergence, 240 h, 1000 g ai/ha, 0 to 100 scale, read-out: Plant response rating, Ryegrass, Italian
Procedure, shortened: as §1

[5] = tested on: barnyardgrass (Echinochloa crus-galli); assay: Test A preemergence; conditions: Echinochloa crus-galli, pre-emergence, 240 h, 1000 g ai/ha, 0 to 100 scale, read-out: Plant response rating, Barnyardgrass
Procedure, shortened: as §1

[6] = tested on: giant foxtail (Setaria faberii); assay: Test A preemergence; conditions: Setaria faberi, pre-emergence, 240 h, 1000 g ai/ha, 0 to 100 scale, read-out: Plant response rating, Foxtail, Giant
Procedure, shortened: as §1

[7] = tested on: lambsquarters (Chenopodium album); assay: Test C preemergence; conditions: Chenopodium album, pre-emergence, 336 h, preemergence, scale 0 to 100, read-out: Plant response rating, Lambsquarters
Procedure, shortened: (§2)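 Visual ratings were made 13-15 days after treatment in the greenhouse, scored 0-100 against controls, where 100 means complete control. Treatments used a surfactant-containing non-phytotoxic solvent formulation, applied preemergence to seeds in loam-sand soil or postemergence to 2-18 cm plants (1-4 leaves) in peat-based medium.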

[8] = tested on: galium (catchweed bedstraw, Galium aparine); assay: Test C preemergence; conditions: Galium, pre-emergence, 336 h, preemergence, scale 0 to 100, read-out: Plant response rating, Galium
Procedure, shortened: as §2

[9] = tested on: yellow nutsedge (Cyperus esculentus); assay: Test C preemergence; conditions: Cyperus, pre-emergence, 336 h, preemergence, scale 0 to 100, read-out: Plant response rating, Nutsedge, Yellow
Procedure, shortened: as §2

rice (Oryza sativa) = assay: Test B flooded paddy; conditions: Oryza sativa, 336 h; 250 g ai/ha, Flood, 13 to 15 days, scale 0 (no effect) to 100 (complete control); read-out: Plant response rating, Rice
Procedure, shortened: (§3)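 Flooded 3 cm over soil; compound into paddy water; depth kept constant. Greenhouse 13–15 d.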

[10] = tested on: ducksalad (Heteranthera limosa); assay: Test B flooded paddy; conditions: Heteranthera limosa, 336 h; 250 g ai/ha, Flood, 13 to 15 days, scale 0 (no effect) to 100 (complete control); read-out: Plant response rating, Ducksalad
Procedure, shortened: as §3

[11] = tested on: barnyardgrass (Echinochloa crus-galli); assay: Test B flooded paddy; conditions: Echinochloa crus-galli, 336 h; 250 g ai/ha, Flood, 13 to 15 days, scale 0 (no effect) to 100 (complete control); read-out: Plant response rating, Barnyardgrass
Procedure, shortened: as §3

[12] = tested on: sedge, umbrella (small-flower umbrella sedge, Cyperus difformis); assay: Test B flooded paddy; conditions: Cyperus difformis, 336 h; 250 g ai/ha, Flood, 13 to 15 days, scale 0 (no effect) to 100 (complete control); read-out: Plant response rating, Sedge, Umbrella
Procedure, shortened: as §3

[13] = tested on: blackgrass (Alopecurus myosuroides); assay: Test A postemergence; conditions: Alopecurus myosuroides, post-emergence, 240 h, 1000 g ai/ha, 0 to 100 scale, read-out: Plant response rating, Blackgrass
Procedure, shortened: as §1

corn (Zea mays) = assay: Test A postemergence; conditions: Zea mays, post-emergence, 240 h, 1000 g ai/ha, 0 to 100 scale
Procedure, shortened: as §1

kochia (Kochia scoparia) [14] = assay: Test A postemergence; conditions: Bassia scoparia, post-emergence, 240 h, 1000 g ai/ha, 0 to 100 scale, read-out: Plant response rating, Kochia
Procedure, shortened: as §1

[15] = tested on: ragweed (common ragweed, Ambrosia elatior); assay: Test A postemergence; conditions: Ambrosia artemisiifolia, post-emergence, 240 h, 1000 g ai/ha, 0 to 100 scale, read-out: Plant response rating, Ragweed
Procedure, shortened: as §1

[16] = tested on: pigweed (Amaranthus retroflexus); assay: Test A postemergence; conditions: Amaranthus retroflexus, post-emergence, 240 h, 1000 g ai/ha, 0 to 100 scale, read-out: Plant response rating, Pigweed
Procedure, shortened: as §1

[17] = tested on: Italian ryegrass (Lolium multiflorum); assay: Test A postemergence; conditions: Lolium multiflorum, post-emergence, 240 h, 1000 g ai/ha, 0 to 100 scale, read-out: Plant response rating, Ryegrass, Italian
Procedure, shortened: as §1

[18] = tested on: barnyardgrass (Echinochloa crus-galli); assay: Test A postemergence; conditions: Echinochloa crus-galli, post-emergence, 240 h, 1000 g ai/ha, 0 to 100 scale, 0 no effect, 100 complete control, read-out: Plant response rating, Barnyardgrass
Procedure, shortened: as §1

[19] = tested on: wheat (Triticum aestivum); assay: Test A postemergence; conditions: Triticum aestivum, post-emergence, 240 h, 1000 g ai/ha, 0 to 100 scale, read-out: Plant response rating, Wheat
Procedure, shortened: as §1

[20] = tested on: galium (catchweed bedstraw, Galium aparine); assay: Test A postemergence; conditions: Galium, post-emergence, 240 h, 1000 g ai/ha, 0 to 100 scale, read-out: Plant response rating, Galium
Procedure, shortened: as §1

[21] = tested on: giant foxtail (Setaria faberii); assay: Test A postemergence; conditions: Setaria faberi, post-emergence, 240 h, 1000 g ai/ha, 0 to 100 scale, read-out: Plant response rating, Foxtail, Giant
Procedure, shortened: as §1

SMILES: Fc1cccc(Oc2ncc(Cl)cn2)c1Oc1ncc(Br)cn1 [Compound 27, 5-bromo-2-[2-fluoro-6-[(5-chloro-2-pyrimidinyl)oxy]phenoxy]pyrimidine]
- pest or weed control at 1000 g/ha (kochia (Kochia scoparia) [1]): 100%
- pest or weed control at 1000 g/ha [2]: 90%
- pest or weed control at 1000 g/ha [3]: 100%
- pest or weed control at 1000 g/ha [4]: 70%
- pest or weed control at 1000 g/ha [5]: 100%
- pest or weed control at 1000 g/ha [6]: 100%
- pest or weed control at 31 g/ha ([7]; 31 g ai/ha): 80%
- pest or weed control at 62 g/ha ([7]; 62 g ai/ha): 85%
- pest or weed control at 125 g/ha ([7]; 125 g ai/ha): 100%
- pest or weed control at 31 g/ha ([8]; 31 g ai/ha): 100%
- pest or weed control at 62 g/ha ([8]; 62 g ai/ha): 100%
- pest or weed control at 125 g/ha ([8]; 125 g ai/ha): 100%
- pest or weed control at 31 g/ha ([9]; 31 g ai/ha): 0%
- pest or weed control at 62 g/ha ([9]; 62 g ai/ha): 0%
- pest or weed control at 125 g/ha ([9]; 125 g ai/ha): 55%
- plant injury at 250 g/ha (rice (Oryza sativa)): 60%
- pest or weed control at 250 g/ha [10]: 80%
- pest or weed control at 250 g/ha [11]: 50%
- pest or weed control at 250 g/ha [12]: 85%
- pest or weed control at 1000 g/ha [13]: 80%
- Corn plant response rating (crop injury, 0 = no effect, 100 = complete kill) at 1000 g/ha (corn (Zea mays)): 40%
- pest or weed control at 1000 g/ha (kochia (Kochia scoparia) [14]): 90%
- pest or weed control at 1000 g/ha [15]: 80%
- pest or weed control at 1000 g/ha [16]: 100%
- pest or weed control at 1000 g/ha [17]: 90%
- pest or weed control at 1000 g/ha [18]: 90%
- plant injury at 1000 g/ha [19]: 50%
- pest or weed control at 1000 g/ha [20]: 90%
- pest or weed control at 1000 g/ha [21]: 90%

— US20170190671A1, “BIS(ARYL)CATECHOL DERIVATIVES AS HERBICIDES” (E I DU PONT DE NEMOURS AND COMPANY, priority 2014, published 2017)
